Test results published in patent publication US20240343835A1, “COVALENT HETEROBIVALENT ANTIBODY INHIBITORS AND LIGANDS” (UNIVERSITY OF NOTRE DAME DU LAC, priority 2015, published 2024).
Ends that are not written are not given here.

Tests used:
[1] = molecular target: nucleotide binding site (NBS) of IgEs; assay: Fluorescence quenching binding of NBS ligand; conditions: monovalent affinity
[2] = molecular target: trastuzumab; assay: Fluorescence quenching assay with trastuzumab; format: binding; conditions: for Kd: fluorescence quenching, DNP-tagged ligands
Description: The binding constants (Kd) of monovalent ABS (trastuzumab binding peptide), NBS (naphthalene), and heterobivalent ligand (trast-napht) were determined using fluorescence quenching assay as previously described (Handlogten MW, et al., Chem Biol. 2011; 18 (9): 1179-1188). Briefly, ligands were titrated into trastuzumab (30 nM) as well as PBS and Indole-3-butyric acid (IBA) to exclude the effect of nonspecific interactions between DNP and tryptophan. Since DNP absorbs light at 335 nm and tryptophan emits light at 335 nm, the fluorescence of tryptophan is quenched by DNP. The fluorescence of tryptophan was read by SpectraMax M5 plate reader (Molecular Devices) at λex=280 nm and λem=335 nm with various concentrations of ligands. The fluorescence signals dropped upon titration of ligands and apparent binding constants were calculated using a Hill's curve fit in OriginPro 2015.

[3] = test system: trastuzumab; assay: Direct ELISA for selective binding of cHBL to trastuzumab; conditions: 8 hours, 37° C., pH 7.4
Description: ELISA was used to confirm selective binding of trast-cHBL to trastuzumab. […] FITC also reacted with trastuzumab at the same conditions except for pH; they were incubated in either PBS or carbonate-bicarbonate buffer. Trastuzumab without any covalent ligands was used as a negative control (pH 7.4). After an 8-hour reaction, all molecules were purified using Amicon Ultra-0.5 mL Centrifugal Filters to remove the unbound covalent ligands. Concentration of trastuzumab was determined by SpectraMax M5 plate reader. For ELISA, 96 well high-binding assay plate was coated with trastuzumab (0.5 nM in carbonate-bicarbonate buffer) overnight at 4° C. refrigerator. The next morning, the wells were washed with a washing buffer (0.05% Tween 20 in PBS) using AquaMax 2000 plate automatic washer (Molecular Devices) to remove unbound trastuzumab and blocked with blocking buffer (5% (w/v) BSA and 0.1% (v/v) Tween 20 in PBS) for 1 hour at room temperature. After 1 hour, the wells were washed and then incubated with goat anti-FITC IgG-HRP conjugate (1:20,000 in blocking buffer) for 1 hour. Amplex Red Hydrogen Peroxide/Peroxidase Assay kit was used to initiate enzymatic reaction and the fluorescence (λex=570 nm and λem=592 nm) was read by SpectraMax M5 plate reader.

[4] = test system: trastuzumab; assay: Western blot of ITC covalent conjugation to trastuzumab chains; format: biochemical; conditions: reducing gel
Description: ITC conjugation to active lysine on either light chain […] proximal to NBS was confirmed by western blot as previously described (Alves NJ, et al., Langmuir. 2012; 28 (25): 9640-9648). The samples (20 nM in 1×SDS reducing buffer) were run on a 10% SDS-PAGE gel at 110 V for 50 min in the presence of a Tris-glycine running buffer. The samples were then transferred to a nitrocellulose membrane (Bio-Rad) at 90 V for 90 min in a 20% methanol transfer buffer. The membrane was blocked with a blocking buffer (5% (w/v) non-fat dry milk in Tris buffered Saline with 0.05% Tween 20 (TBS-T)) for 1 hour. After 1 hour, the membrane was washed once with TBS-T and followed by incubation with HRP-conjugated goat anti-FITC IgG (1:20,000 in blocking buffer) for 45 min. The membrane was washed with 3×TBS-T for 10 min to remove the unbound secondary detection antibodies and subsequently incubated with chemiluminescent HRP substrate for 5 min to detect the location at which lysine on either heavy or light chain is conjugated to cHBL molecules. A second SDS-PAGE gel was run concurrently and stained in Commassie blue staining solution (0.15% Coomassie R-250 (EMD chemicals), 10% acetic acid and 20% methanol in DI water) and destained in destaining solution (10% acetic acid, methanol, and 80% DI water) to confirm that all the proteins were transferred to the membrane. […]

[5] = test system: HER2/neu receptor on BT474 cells; assay: Cellular binding assay by flow cytometry with cHBL-tagged trastuzumab; format: cell-based
Description: Inhibition of trastuzumab by binding of trast-cHBL was confirmed by cellular binding assay with HER2-overexpressed breast and ovarian cancer cell lines (BT474 and SKOV3) using a Guava EasyCyte 8HT flow cytometer (Millipore). 0.5 mL of 50000 cells/mL were cultured on 2-well tissue culture plates overnight. The plate was kept on ice for 30 min to avoid receptor internalization. The wells were washed with a blocking buffer (1.5% BSA in PBS) and incubated with trastuzumab that had been previously incubated with trast-cHBL at various concentrations in the same fashion as the ELISA experiments for 1 hour on ice. The wells were washed once and incubated with Alexa Fluor 647-conjugated goat anti-human IgG (1:500 in blocking buffer) for 1 hour on ice. The wells were washed once with blocking buffer and the cells were gently scraped to run flow cytometer. Green (FITC) and Red2 (Alexa fluorophore with λem=667 nm) fluorescence were read to confirm trast-cHBL binding. Trastuzumab without any ligands and trastuzumab—FITC conjugate were used as positive controls and the cells with Alexa Flour 647-conjugated secondary antibody and without trastuzumab were used as negative controls.

[6] = test system: NBS of trastuzumab; assay: Competitive ELISA of naphthalene-biotin binding to the NBS; conditions: 2 and 10 μM, p<0.01
Description: The specificity of naphthalene to NBS of IgG was confirmed using UV photo-cross-linking method and competitive sandwich ELISA. The wells of high binding plate were coated with goat-derived anti-human IgGs (1 nM in carbonate-bicarbonate buffer) overnight at 4° C. Trastuzumab (100 nM in PBS) prepared for ELISA described above was incubated with naphthalene-EG11-biotin (25 μM in PBS) for 1 hour at room temperature. PBS with only naphthalene-EG11-biotin was used as a negative control to normalize the binding curve. After 1 hour incubation, the molecules were exposed to UV light (1 J/cm^2) in a Spectroline UV select Series Cross-linker (Spectronics) to induce covalent photo-cross-linking of naphthalene to unbound NBS. The molecules were spun and 2 nM of the molecules were prepared in the blocking buffer. The wells coated with goat anti-human IgGs were washed and blocked with the blocking buffer for 1 hour. The wells were washed followed by incubation with the UV photo-cross-linked trastuzumab (2 nM) for 1 hour. […] An Amplex red assay kit was used to detect the fluorescence signals from the specific binding of naphthalene to NBS induced by UV photo-cross-linking. Since cHBL contains naphthalene, blocked NBS of trastuzumab is expected not to be photo-cross-linked to naphthalene-EGn-biotin, leading to relatively lower signals of fluorescence in the presence of cHBL.

[7] = molecular target: IgE^dansyl; assay: Fluorescence quenching binding of dansyl molecules to IgE^dansyl; conditions: dissociation constants for hapten-Napht conjugates
Description: To determine binding of HBI molecules to respective antibodies, we observed the quenching of tryptophan resides using a method previously described (Junutula JR, et al., Nat. Biotechnol. 2008; 26 (8): 925-932). Briefly, either IgE^dansyl or IgG^Penicillin was diluted into a non-binding 96-well dish at 40 nM in PBS. Then, HBI molecules which contained either a dansyl or DNP group were titrated into well and fluorescence (Ex. 280 nm, Em. 335) was observed using a SpectraMax M2 spectrophotometer. PBS and free tryptamine diluted to similar initial fluorescence values were used as controls to account for HBI fluorescence and non-specific quenching respectively.

With `O=C(O)Cc1ccc2ccccc2c1` [2-naphteleneacetic acid] the Kd [1] was 1800 ± 300 nM and the Kd ([1]; listed as 2-naphthaleneacetic acid) was 2000 nM.

For “LLGPYELWELSH [Trastuzumab binding peptide, reference compound]”, the Kd [2] was 200 ± 14 nM.

For “Rituximab-cHBL: orthogonal cHBL with rituximab binding peptide WPRWLEN”, the “binding to trastuzumab (direct ELISA)” value [3] was “not selective to trastuzumab up to 20 μM”.

Compound “Trast-DNP: trastuzumab binding peptide tagged with DNP (LLGPYELWELSH; also: tagged with DNP)” has a Kd [2] of 200 ± 14 nM.

With “Trast-Napht-DNP: trastuzumab binding peptide conjugated to napht with ethylene glycol spacer, DNP tagged (LLGPYELWELSH; also: conjugated to napht with ethylene glycol spacer, DNP tagged)” the Kd [2] was 46 ± 6 nM, the Kd ([2]; listed as Trast-napht-DNP) was 46.6 ± 6 nM and the “fold increase in observed affinity on conjugation to napht” value ([2]; napht with ethylene glycol spacer) was “over 4 fold”.

With “Trast-cHBL: trastuzumab-specific cHBL with peptide LLGPYELWELSH, napht, ITC and fluorescein tag (not fully specified; also: cHBL with napht, ITC and fluorescein tag)” the “binding to trastuzumab (direct ELISA)” value [3] was “significant increase in binding over trastuzumab-ITC at 1 μM”, the antibody chain conjugated [4] was “preferentially conjugated to light chain” and the “cHBL concentration at which FITC signal saturates” value [5] was 2 µM. The “FITC signal, percent of maximum” value ([5]; 1 μM cHBL) was “approximately 50%”, the “HER2 binding (Alexa 647 signal)” value ([5]; 1 μM cHBL) was “no significant reduction in HER2 binding” and the “HER2 binding retained (Alexa 647 signal)” value ([5]; 2 μM cHBL) was “approximately 75%”. For the same compound, the “HER2 binding (Alexa 647 signal)” value ([5]; 10 μM cHBL) was “HER2 binding drops drastically” and the “naphthalene-biotin binding after cHBL incubation” value [6] was “significantly less naphthalene binding”.

Work on Dansyl yielded a Kd [7] of 29.9 ± 10 nM.

“Trast-ITC: trast-cHBL molecule where the napht moiety was omitted (LLGPYELWELSH)” was tested, and the antibody chain conjugated [4] was “conjugated nearly equally to either heavy (50 kDa) or light chain”.
